Experimental findings from US20230348418A1, “ISOINDOLINONE COMPOUNDS” (Monte Rosa Therapeutics, Inc., priority 2021, published 2023) are described below.

The target of one experiment is GSPT1 (Homo sapiens, UniProt P15170+Q96SW2). Description: Immunofluorescence assay for GSPT1 degradation in CAL-51 cells (Example 10). The format is cell-based. More on the design: host or cells: CAL-51. How it is done: The representative compounds were tested in an immunofluorescence assay for their activity to degrade GSPT1. […] Compounds were stored at 10 mM DMSO stocks. […] Cells were subsequently rinsed with PBS and fixed in 10% Formalin solution (50 μl, Sigma HT5011)) for 20 mins at room temperature. […] Following three further PBS washes, 50 μL blocking buffer (1% BSA, Sigma A4503, in PBS) was added for 45 min for signal-to noise reduction. Primary antibody (human GSPT1, Sigma HPA052488) was diluted in blocking buffer (dil.1/300, 35 μL/well) and incubated with the cells overnight at 4° C. […] After three final PBS washes, samples were conserved in 100 μL PBS in the dark, until measurement. Image acquisition was performed on the Operetta High-Content Imager (Perkin-Elmer). […] For the determination of GSPT1 DC50 values, a custom algorithm implemented in the PerkinElmer image analysis software Harmony-Acapella® was developed. After user-defined setting of adjustment parameters, the analysis was run identically without human intervention for all image fields.
DAPI staining of the nuclei was used to determine the location of cells using standard nuclei detection modules. Segmentation artifacts were removed by threshold-based filters for area, roundness and intensity. The outline of the cells was determined analogously from the sum of the normalized, smoothed DAPI and Actin channel, starting from each nucleus. […] GSPT1 degradation (DC50) was calculated after normalization to controls and data import in CDD vault Database, using non-linear regression.

A further experiment concerns the target CRBN-DDB1 (Homo sapiens, UniProt Q96SW2). Kind of experiment: HTRF binding of compounds to CRBN. As to the method:
Compound activity was monitored in a Homogenous Time-Resolved Fluorescence (HTRF) assay using 1-[5-({2-[2-(2-{[2-(2,6-dioxopiperidin-3-yl)-1,3-dioxo-2,3-dihydro-1H-isoindol-4-yl]oxy}acetamido)ethoxy]ethyl}carbamoyl)pentyl]-3,3-dimethyl-2-[(1E,3E)-5-[(2E)-1,3,3-trimethyl-5-sulfo-2,3-dihydro-1H-indol-2-ylidene]penta-1,3-dien-1-yl]-3H-indol-1-ium-5-sulfonate as a fluorescent probe. […] Compounds were stored in dry, ambient temperatures at 10 mM. A 10-point, 1:3 dilution series was prepared from 10 mM stock concentrations in Echo-compatible LDV plates. 10 nL of each compound dilution series was dispensed into assays wells using an Echo 650 (Labcyte inc. USA). […] The assay was then allowed to incubate for 30 min at ambient temperature after transferring compound. […] Analysis and IC50 values were derived using KNIME analytics (KNIME Zurich) transformation and fitting within Collaborative Drug Discovery (Collaborative Drug Discovery USA). Ki was derived from the geometric mean of the IC50 values using the Cheng-Prustoff transformation.

Where [1] appears, read: 6 h, read-out: IF Class (GSPT1 degradation, DC50).
The mark [2] stands for this setting: read-out: HTRF Class (Cereblon binding, HTRF IC50).
Where [3] appears, read: read-out: IF Class (GSPT1 degradation, DC50), 6 h.

Read-outs that look alike come from different tables or passages of the source.

Sequence of CRBN-DDB1 (Q96SW2 whole entry): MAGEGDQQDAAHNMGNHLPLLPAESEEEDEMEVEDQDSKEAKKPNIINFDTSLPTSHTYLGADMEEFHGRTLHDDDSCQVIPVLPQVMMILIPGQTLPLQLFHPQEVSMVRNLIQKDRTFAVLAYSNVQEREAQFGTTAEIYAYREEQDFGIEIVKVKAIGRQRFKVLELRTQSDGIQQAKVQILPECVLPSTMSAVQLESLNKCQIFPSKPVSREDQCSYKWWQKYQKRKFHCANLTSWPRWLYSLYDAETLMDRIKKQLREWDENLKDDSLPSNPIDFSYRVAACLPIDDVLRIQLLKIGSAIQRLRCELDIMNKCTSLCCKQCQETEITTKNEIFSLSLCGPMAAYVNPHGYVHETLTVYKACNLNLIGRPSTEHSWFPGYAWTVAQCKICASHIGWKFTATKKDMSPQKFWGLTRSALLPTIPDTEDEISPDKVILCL
Sequence of CRBN-DDB1 (Q16531 whole entry partner): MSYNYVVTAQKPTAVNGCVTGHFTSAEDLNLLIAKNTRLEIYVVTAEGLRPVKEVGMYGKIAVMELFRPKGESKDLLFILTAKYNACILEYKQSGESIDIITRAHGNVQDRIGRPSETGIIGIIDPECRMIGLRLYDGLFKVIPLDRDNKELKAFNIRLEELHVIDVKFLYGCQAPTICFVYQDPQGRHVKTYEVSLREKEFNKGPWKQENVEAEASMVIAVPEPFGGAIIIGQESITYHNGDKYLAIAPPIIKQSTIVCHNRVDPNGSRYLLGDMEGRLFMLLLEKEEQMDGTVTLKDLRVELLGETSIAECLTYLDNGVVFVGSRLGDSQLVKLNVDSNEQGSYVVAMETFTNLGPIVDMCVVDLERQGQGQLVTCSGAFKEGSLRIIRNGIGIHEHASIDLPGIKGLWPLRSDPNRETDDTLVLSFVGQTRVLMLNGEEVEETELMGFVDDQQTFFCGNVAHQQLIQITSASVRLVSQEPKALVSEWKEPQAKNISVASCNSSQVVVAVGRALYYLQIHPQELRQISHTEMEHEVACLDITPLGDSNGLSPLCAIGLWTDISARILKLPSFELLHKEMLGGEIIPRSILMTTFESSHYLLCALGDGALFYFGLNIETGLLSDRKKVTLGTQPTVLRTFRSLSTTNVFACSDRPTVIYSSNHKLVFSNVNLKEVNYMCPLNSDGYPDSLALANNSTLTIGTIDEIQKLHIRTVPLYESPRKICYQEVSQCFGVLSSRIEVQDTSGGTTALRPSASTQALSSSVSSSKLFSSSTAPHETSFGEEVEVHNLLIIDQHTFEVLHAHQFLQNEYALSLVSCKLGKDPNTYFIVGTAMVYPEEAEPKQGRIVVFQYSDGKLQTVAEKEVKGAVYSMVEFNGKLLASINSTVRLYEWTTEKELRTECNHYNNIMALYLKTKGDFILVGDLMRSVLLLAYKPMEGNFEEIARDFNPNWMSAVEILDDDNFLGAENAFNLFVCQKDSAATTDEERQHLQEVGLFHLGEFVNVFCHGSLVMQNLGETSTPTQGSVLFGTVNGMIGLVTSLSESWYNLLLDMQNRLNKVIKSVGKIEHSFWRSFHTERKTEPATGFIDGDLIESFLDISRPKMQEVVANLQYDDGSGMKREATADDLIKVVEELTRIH
Sequence of GSPT1 (P15170 whole entry): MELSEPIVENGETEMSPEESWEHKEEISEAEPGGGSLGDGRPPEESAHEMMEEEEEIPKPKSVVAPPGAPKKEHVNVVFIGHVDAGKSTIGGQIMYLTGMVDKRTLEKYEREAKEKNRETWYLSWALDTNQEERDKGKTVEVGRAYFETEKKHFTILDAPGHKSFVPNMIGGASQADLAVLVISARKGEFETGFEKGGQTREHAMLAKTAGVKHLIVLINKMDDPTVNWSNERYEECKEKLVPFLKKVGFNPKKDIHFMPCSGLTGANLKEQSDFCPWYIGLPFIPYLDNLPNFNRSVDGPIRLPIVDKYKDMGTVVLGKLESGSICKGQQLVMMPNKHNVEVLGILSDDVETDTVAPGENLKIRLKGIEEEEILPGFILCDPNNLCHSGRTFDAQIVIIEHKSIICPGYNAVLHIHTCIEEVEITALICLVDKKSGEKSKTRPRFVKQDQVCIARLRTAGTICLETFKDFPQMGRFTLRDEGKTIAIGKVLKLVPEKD
Sequence of GSPT1 (Q96SW2 whole entry): as the sequence (Q96SW2 whole entry) above
Sequence of GSPT1 (Q16531 2-1140 partner limits assumed): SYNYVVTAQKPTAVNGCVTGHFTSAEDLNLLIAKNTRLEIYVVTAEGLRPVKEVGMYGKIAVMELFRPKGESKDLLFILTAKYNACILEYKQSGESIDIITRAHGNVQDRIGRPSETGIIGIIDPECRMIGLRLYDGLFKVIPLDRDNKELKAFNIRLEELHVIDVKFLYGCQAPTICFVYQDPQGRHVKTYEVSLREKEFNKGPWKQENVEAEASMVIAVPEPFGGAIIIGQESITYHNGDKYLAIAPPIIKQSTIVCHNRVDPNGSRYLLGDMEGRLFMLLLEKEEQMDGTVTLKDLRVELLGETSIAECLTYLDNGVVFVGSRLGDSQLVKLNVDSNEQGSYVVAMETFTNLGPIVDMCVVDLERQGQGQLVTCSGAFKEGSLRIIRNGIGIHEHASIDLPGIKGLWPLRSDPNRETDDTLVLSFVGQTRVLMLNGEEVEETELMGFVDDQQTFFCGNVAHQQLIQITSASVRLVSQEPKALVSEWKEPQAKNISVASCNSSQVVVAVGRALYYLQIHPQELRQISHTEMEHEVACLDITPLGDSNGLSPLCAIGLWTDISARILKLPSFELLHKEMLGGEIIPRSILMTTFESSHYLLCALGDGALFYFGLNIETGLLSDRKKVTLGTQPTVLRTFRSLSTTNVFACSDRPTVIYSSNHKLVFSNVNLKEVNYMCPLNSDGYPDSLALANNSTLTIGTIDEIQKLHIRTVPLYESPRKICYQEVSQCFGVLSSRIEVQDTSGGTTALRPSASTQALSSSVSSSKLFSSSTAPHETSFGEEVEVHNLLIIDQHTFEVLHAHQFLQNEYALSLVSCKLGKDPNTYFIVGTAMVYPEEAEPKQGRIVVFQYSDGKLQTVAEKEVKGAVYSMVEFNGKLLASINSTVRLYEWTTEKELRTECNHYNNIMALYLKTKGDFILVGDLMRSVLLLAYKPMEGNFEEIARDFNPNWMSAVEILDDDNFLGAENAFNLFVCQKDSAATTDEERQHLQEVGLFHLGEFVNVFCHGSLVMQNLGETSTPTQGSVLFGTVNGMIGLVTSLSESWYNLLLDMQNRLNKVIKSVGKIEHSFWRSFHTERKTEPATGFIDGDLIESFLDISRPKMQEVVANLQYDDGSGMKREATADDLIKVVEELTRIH

In the case of `Cc1cc(NC(=O)OCc2ccc3c(c2)C(=O)N(C2CCC(=O)NC2=O)C3)ccc1Cl` (stereo not shown) [Compound 165, (2-(2,6-dioxopiperidin-3-yl)-3-oxoisoindolin-5-yl)methyl (4-chloro-3-methylphenyl)carbamate], the DC50 at GSPT1 (setting [1]) is under 30 nM. Further, the 50% inhibitory concentration (IC50) at CRBN-DDB1 (setting [2]) lay within 100 to 1000 nM.

Consider `O=C1CCC(N2Cc3ccc(COC(=O)N[C@H]4C[C@H](c5ccccc5)C4)cc3C2=O)C(=O)N1` (stereo partly shown) [Compound 159, (2-(2,6-dioxopiperidin-3-yl)-3-oxoisoindolin-5-yl)methyl((1r,3r)-3-phenylcyclobutyl)carbamate], for which the DC50 at GSPT1 (setting [1]) lay within 30 to 300 nM. Also, the 50% inhibitory concentration (IC50) at CRBN-DDB1 (setting [2]) was in the range of 100 to 1000 nM.

For `O=C1CCC(N2Cc3ccc(COC(=O)Nc4c(F)ccc(Cl)c4F)cc3C2=O)C(=O)N1` (stereo not shown) [Compound 178, (2-(2,6-dioxopiperidin-3-yl)-3-oxoisoindolin-5-yl)methyl (3-chloro-2,6-difluorophenyl)carbamate], at GSPT1 (setting [1]), the DC50 is over 300 nM. Besides, the IC50 at CRBN-DDB1 (setting [2]) lay in the range of 100 to 1000 nM.

`Cc1cc(C)nc(NC(=O)OCc2ccc3c(c2)C(=O)N(C2CCC(=O)NC2=O)C3)c1` (stereo not shown) [Compound 161, (2-(2,6-dioxopiperidin-3-yl)-3-oxoisoindolin-5-yl)methyl (4,6-dimethylpyridin-2-yl)carbamate]: at GSPT1 (setting [1]), the half-maximal degradation concentration (DC50) is over 300 nM. Also, the IC50 at CRBN-DDB1 (setting [2]) was 100 to 1000 nM.

Turning to `O=C1CCC(N2Cc3ccc(COC(=O)Nc4cc(F)cc5c4OCC5)cc3C2=O)C(=O)N1` (stereo not shown) [Compound 187, (2-(2,6-dioxopiperidin-3-yl)-3-oxoisoindolin-5-yl)methyl(5-fluoro-2,3-dihydrobenzofuran-7-yl) carbamate], the DC50 at GSPT1 (setting [1]) is over 300 nM. Besides, the IC50 at CRBN-DDB1 (setting [2]) is under 100 nM.

Turning to `CC1(c2ccc(NC(=O)OCc3ccc4c(c3)C(=O)N(C3CCC(=O)NC3=O)C4)nc2)CC1` (stereo not shown) [Compound 188], the DC50 at GSPT1 (setting [3]) is under 30 nM. At CRBN-DDB1, this molecule registered an IC50 of 100 to 1000 nM.

Turning to `CC(C)(C)OC(=O)NC12CC(NC(=O)OCc3ccc4c(c3)C(=O)N(C3CCC(=O)NC3=O)C4)(C1)C2` (stereo not shown) [Compound 196, tert-butyl((2-(2,6-dioxopiperidin-3-yl)-3-oxoisoindolin-5-yl)methyl)bicyclo[1.1.1]pentane-1,3-diyldicarbamate], at GSPT1 (setting [1]), the DC50 was over 300 nM. Also, on CRBN-DDB1 (setting [2]), the IC50 was under 100 nM.

On to `Cc1c(Cl)ccc(NC(=O)OCc2ccc3c(c2)C(=O)N(C2CCC(=O)NC2=O)C3)c1F` (stereo not shown) [Compound 180], for which, on GSPT1 (setting [3]), the DC50 lay in the range of 30 to 300 nM. This molecule showed an IC50 on CRBN-DDB1 of 100 to 1000 nM.

For the molecule `O=C1CCC(N2Cc3ccc(COC(=O)Nc4cc(OC(F)F)c(F)cc4F)cc3C2=O)C(=O)N1` (stereo not shown) [Compound 218, (2-(2,6-dioxopiperidin-3-yl)-3-oxoisoindolin-5-yl)methyl(5-(difluoromethoxy)-2,4-difluorophenyl) carbamate], the DC50 at GSPT1 (setting [1]) was over 300 nM. Also, the IC50 at CRBN-DDB1 (setting [2]) is under 100 nM.

Turning to `Cc1cc(F)c(NC(=O)OCc2ccc3c(c2)C(=O)N(C2CCC(=O)NC2=O)C3)c(F)c1Cl` (stereo not shown) [Compound 211, (2-(2,6-dioxopiperidin-3-yl)-3-oxoisoindolin-5-yl)methyl (3-chloro-2,6-difluoro-4-methylphenyl)carbamate], on CRBN-DDB1 (setting [2]), the IC50 is under 100 nM.

With `CC(C)(C)[C@H]1C[C@H](NC(=O)OCc2ccc3c(c2)C(=O)N(C2CCC(=O)NC2=O)C3)C1` (stereo partly drawn) [Compound 185, trans-(2-(2,6-dioxopiperidin-3-yl)-3-oxoisoindolin-5-yl)methyl ((1s,3s)-3-(tert-butyl)cyclobutyl)carbamate], the IC50 on CRBN-DDB1 (setting [2]) was in the range of 100 to 1000 nM.

`O=C1CCC(N2Cc3ccc(COC(=O)Nc4cccc(OC(F)(F)F)c4F)cc3C2=O)C(=O)N1` (stereo not shown) [Compound 169] displayed an IC50 at CRBN-DDB1 of 100 to 1000 nM.

Take `Cc1cc(NC(=O)OCc2ccc3c(c2)C(=O)N(C2CCC(=O)NC2=O)C3)cc(C#N)c1C` (stereo not shown) [Compound 186]: on CRBN-DDB1, the IC50 lay within 100 to 1000 nM.

Consider `O=C1CCC(N2Cc3ccc(COC(=O)NC4CN(Cc5ccccc5)C4)cc3C2=O)C(=O)N1` (stereo not shown) [Compound 168], for which the IC50 at CRBN-DDB1 fell in the range of 100 to 1000 nM.

With `CCc1cccc(NC(=O)OCc2ccc3c(c2)C(=O)N(C2CCC(=O)NC2=O)C3)c1` (stereo not shown) [Compound 220, (2-(2,6-dioxopiperidin-3-yl)-3-oxoisoindolin-5-yl)methyl (3-ethylphenyl)carbamate], the IC50 on CRBN-DDB1 (setting [2]) lay in the range of 100 to 1000 nM.

The molecule `O=C1CCC(N2Cc3ccc(COC(=O)Nc4cc(Cl)cc5c4OCC5)cc3C2=O)C(=O)N1` (stereo not shown) [Compound 189] showed an IC50 on CRBN-DDB1 of under 100 nM.

For the molecule `Cc1cc(F)c(NC(=O)OCc2ccc3c(c2)C(=O)N(C2CCC(=O)NC2=O)C3)cc1OC(C)C` (stereo not shown) [Compound 230, (2-(2,6-dioxopiperidin-3-yl)-3-oxoisoindolin-5-yl)methyl (2-fluoro-5-isopropoxy-4-methylphenyl)carbamate], the IC50 at CRBN-DDB1 (setting [2]) is under 100 nM.

As for `O=C1CCC(N2Cc3ccc(COC(=O)Nc4cccc(C5CC5)c4)cc3C2=O)C(=O)N1` (stereo not shown) [Compound 216, (2-(2,6-dioxopiperidin-3-yl)-3-oxoisoindolin-5-yl)methyl (3-cyclopropylphenyl)carbamate], the IC50 at CRBN-DDB1 (setting [2]) lay in the range of 100 to 1000 nM.

Regarding `CC1(c2ccc(NC(=O)OCc3ccc4c(c3)C(=O)N(C3CCC(=O)NC3=O)C4)cc2F)COC1` (stereo not shown) [Compound 240, (2-(2,6-dioxopiperidin-3-yl)-3-oxoisoindolin-5-yl)methyl (3-fluoro-4-(3-methyloxetan-3-yl)phenyl)carbamate], the IC50 on CRBN-DDB1 (setting [2]) lay in the range of 100 to 1000 nM.

On to `O=C1CCC(N2Cc3ccc(COC(=O)Nc4cccc5c4OCC5)cc3C2=O)C(=O)N1` (stereo not shown) [Compound 173], for which the IC50 on CRBN-DDB1 was in the range of 100 to 1000 nM.

Take `O=C1CCC(N2Cc3ccc(COC(=O)Nc4cc(F)c(OC(F)F)c(F)c4)cc3C2=O)C(=O)N1` (stereo not shown) [Compound 206, (2-(2,6-dioxopiperidin-3-yl)-3-oxoisoindolin-5-yl) methyl (4-(difluoromethoxy)-3,5-difluorophenyl)carbamate]: the IC50 at CRBN-DDB1 (setting [2]) was 100 to 1000 nM.

With `CCCOc1ccc(F)c(NC(=O)OCc2ccc3c(c2)C(=O)N(C2CCC(=O)NC2=O)C3)c1` (stereo not shown) [Compound 226, (2-(2,6-dioxopiperidin-3-yl)-3-oxoisoindolin-5-yl)methyl (2-fluoro-5-propoxyphenyl)carbamate], on CRBN-DDB1 (setting [2]), the IC50 was 100 to 1000 nM.

With `O=C1CCC(N2Cc3ccc(COC(=O)NC4CN(c5ccccc5)C4)cc3C2=O)C(=O)N1` (stereo not shown) [Compound 167], the IC50 at CRBN-DDB1 is under 100 nM.

Regarding `O=C1CCC(N2Cc3ccc(COC(=O)Nc4cc(Cl)ccc4F)cc3C2=O)C(=O)N1` (stereo not shown) [Compound 163, (2-(2,6-dioxopiperidin-3-yl)-3-oxoisoindolin-5-yl)methyl (5-chloro-2-fluorophenyl)carbamate], the IC50 at CRBN-DDB1 (setting [2]) lay in the range of 100 to 1000 nM.

For the molecule `CC(F)(F)c1ccc(F)c(NC(=O)OCc2ccc3c(c2)C(=O)N(C2CCC(=O)NC2=O)C3)c1` (stereo not shown) [Compound 234], the IC50 on CRBN-DDB1 was under 100 nM.

Consider `CC(C)(C)c1cccc(NC(=O)OCc2ccc3c(c2)C(=O)N(C2CCC(=O)NC2=O)C3)n1` (stereo not shown) [Compound 170, (2-(2,6-dioxopiperidin-3-yl)-3-oxoisoindolin-5-yl)methyl (6-(tert-butyl)pyridin-2-yl)carbamate], for which the IC50 on CRBN-DDB1 (setting [2]) was 100 to 1000 nM.

In the case of `Cc1cc(F)c(NC(=O)OCc2ccc3c(c2)C(=O)N(C2CCC(=O)NC2=O)C3)cc1OC(F)F` (stereo not shown) [Compound 201, (2-(2,6-dioxopiperidin-3-yl)-3-oxoisoindolin-5-yl) methyl (5-(difluoromethoxy)-2-fluoro-4-methylphenyl)carbamate], the IC50 on CRBN-DDB1 (setting [2]) was 100 to 1000 nM.

In the case of `O=C1CCC(N2Cc3ccc(COC(=O)Nc4cccc(Cl)c4)cc3C2=O)C(=O)N1` (stereo not shown) [Compound 239, (2-(2,6-dioxopiperidin-3-yl)-3-oxoisoindolin-5-yl)methyl (3-chlorophenyl)carbamate], the IC50 at CRBN-DDB1 (setting [2]) is 100 to 1000 nM.

`O=C1CCC(N2Cc3ccc(COC(=O)Nc4cc(C5CC5)ccc4F)cc3C2=O)C(=O)N1` (stereo not shown) [Compound 207, (2-(2,6-dioxopiperidin-3-yl)-3-oxoisoindolin-5-yl)methyl (5-cyclopropyl-2-fluorophenyl) carbamate]: at CRBN-DDB1 (setting [2]), the IC50 was under 100 nM.

Take `CC(C)(C)[C@H]1C[C@@H](NC(=O)OCc2ccc3c(c2)C(=O)N(C2CCC(=O)NC2=O)C3)C1` (stereo partly drawn) [Compound 184, cis-(2-(2,6-dioxopiperidin-3-yl)-3-oxoisoindolin-5-yl)methyl ((1s,3s)-3-(tert-butyl)cyclobutyl)carbamate]: on CRBN-DDB1 (setting [2]), the IC50 lay in the range of 100 to 1000 nM.

Regarding `O=C1CCC(N2Cc3ccc(COC(=O)NC45CC(N6CCCCC6)(C4)C5)cc3C2=O)C(=O)N1` (stereo not shown) [Compound 198], the IC50 at CRBN-DDB1 was 100 to 1000 nM.
